Data as given in patent US12194039B2, “Methods of treating heart failure by administering omecamtiv mecarbil” (Cytokinetics, Inc., priority 2020, dated 2025).
Entries after “also recorded” stand apart in the source; their conditions may differ. Read-outs that look alike come from different tables or passages of the source.

Key:
[1] = system: patients with heart failure and reduced ejection fraction; format: in vivo, human; conditions: for Change in KCCQ total symptom score at week 24, least squares mean (SE): scale 0 to 100; for All-cause death, hazard ratio (95% CI) / Cardiovascular death, hazard ratio (95% CI) / Heart failure event, hazard ratio (95% CI) / Heart failure hospitalization, hazard ratio (95% CI) / Primary composite outcome, hazard ratio (95% CI): vs placebo; for Primary composite outcome, hazard ratio (95% CI): overall trial population
Description: Patient eligibility requirements included age 18-85 years, New York Heart Association functional class (NYHA) II-IV symptoms, and ejection fraction of 35% or less. Participants were currently hospitalized for heart failure (in-patients) or had either an urgent visit to the emergency department or a hospitalization for heart failure (outpatients) within one year prior to randomization. […] Patients were required to receive standard drug and device therapy for heart failure consistent with regional clinical practice guidelines and doses optimized according to investigator judgment.
Key exclusion criteria for patients included current hemodynamic or clinical instability requiring mechanical or intravenous medication, systolic blood pressure (SBP)<85 mmHg, estimated glomerular filtration rate (eGFR)<20 mL/min/1.73 m^2, recent acute coronary syndrome events or cardiovascular procedures (including planned), and other conditions that would adversely affect participation in the trial.
All eligible participants were randomized 1:1 to oral administration of either placebo or omecamtiv mecarbil (pharmacokinetic-guided dosing: 25, 37.5 or 50 mg) twice daily. Pre-dose plasma concentrations of omecamtiv mecarbil were measured at weeks 2 and 6 with respective dose adjustments on weeks 4 and 8. The patient and investigator were blinded to the plasma concentrations and dispensed dose. The full schedule of assessments is provided in the protocol available at NEJM.org. Study drug was temporarily withheld if the participant experienced clinical signs or symptoms consistent with acute myocardial infarction or ischemia.
The study was event-driven and was ended after approximately 1590 cardiovascular deaths. The overall type I error was 0.05 for 2-sided testing across primary and secondary endpoints with control for multiplicity testing. A single interim efficacy analysis was conducted after approximately two-thirds of the targeted number of cardiovascular deaths accrued with a one-sided alpha of 0.0005. Given the negligible impact of this interim on the final alpha, the full 0.05 was used in the final analysis consistent with the Haybittle-Peto approach. […] The mean differences in the KCCQ TSS change from baseline to Week 24 were estimated using a mixed model stratified by randomization setting (inpatient and outpatient) containing baseline TSS value, region, baseline eGFR, scheduled visit, treatment group, and the interaction of treatment group with scheduled visit. A joint omnibus F-test was used to test the treatment effect for the KCCQ TSS. An overall pooled estimate for the KCCQ TSS treatment difference to placebo were conducted using a likelihood based approach. The prespecified safety analyses included: serious adverse events; adverse events associated with discontinuation of study treatment; “adverse events of interest” i.e., ventricular arrhythmias requiring treatment and positively adjudicated major cardiac ischemic events (including myocardial infarction, hospitalization for unstable angina, coronary revascularization). […] All analyses were performed with the use of SAS software, version 9.4 (SAS Institute).
The cumulative incidences of the primary outcome, heart failure events, death from cardiovascular causes and death from any cause were estimated with the use of the Kaplan-Meier method. Hazard ratios and 95% confidence intervals were estimated with the use of Cox regression models stratified by randomization location and region and treatment with omecamtiv mecarbil or placebo as explanatory variables. Analyses are based upon all participants who underwent randomization.

[2] = system: patients with HFrEF by baseline SBP; format: in vivo
Description: Systolic blood pressure (SBP) is a major predictor of outcomes in patients with heart failure and reduced ejection fraction (HFrEF). […] This trial provided data on the efficacy and tolerability of omecamtiv mecarbil according to baseline SBP values. In contrast to other HFrEF therapies, which may not be tolerated in patients with low baseline blood pressure (e.g., <100 mmHg), the present study was able to enroll patients with SBP at baseline of 85 mmHg or greater.
The 8232 randomized patients were subdivided according to SBP at baseline: <100 mmHg (n=1473), 101-110 mmHg (n=1734), 111-120 mmHg (n=1824), 121-130 mmHg (n=1627), and >130 mmHg (n=1574). Significant differences between these subgroups were found with respect of multiple baseline characteristics. The primary composite endpoint occurred in 715 (48.5%), 682 (39.3%), 679 (37.2%), 556 (34.2%), and 498 (31.6%) patients in each SBP subgroup, respectively. Hazard ratios (HRs) and 95% confidence intervals (CIs) for the treatment effect on the primary outcome were of 0.81, 0.70-0.94; 0.88, 0.76-1.03; 1.03, 0.88-1.19; 0.87, 0.73-1.03; and 1.07, 0.90-1.28 in each SBP subgroup, respectively.

[3] = system: patients with EF≤30%, without AFF, without digoxin; format: in vivo, human
[4] = system: patients with HFrEF; conditions: result in words, cited from earlier work
[5] = N = 4120, median follow-up 21.8 months
[6] = component of primary composite, N = 4120
[7] = EF ≤30%, no AFF, no digoxin, OM + standard care (n = 2674)
[8] = EF ≤30%, no AFF, no digoxin, OM vs Pbo

Question: For `COC(=O)N1CCN(Cc2cccc(NC(=O)Nc3ccc(C)nc3)c2F)CC1` [omecamtiv mecarbil], which “Change in KCCQ total symptom score at week 24, difference vs placebo (95% CI)” value (from here on “Change … difference vs placebo (95% CI)”) ([1]; Inpatients) is on record?
Answer: 2.5

Question: And the “Change … difference vs placebo (95% CI)” value ([1]; Inpatients, listed as Omecamtiv Mecarbil)?
Answer: 2.5 (0.54, 4.46)

Question: And the “Change in KCCQ total symptom score at week 24, least squares mean (SE)” value ([1]; Inpatients)?
Answer: 23.7 (0.70)

Question: And the “All-cause death, % of patients” value ([1]; N = 4120)?
Answer: 25.9%

Question: And the “All-cause death, Events/100 patient-yrs” value ([1]; N = 4120)?
Answer: 14.4 Events/100 patient-yrs

Question: What about the “All-cause death, no. of patients” value ([1]; N = 4120) of the same compound?
Answer: 1067 no.

Question: And the “Cardiovascular death, Events/100 patient-yrs” value ([1]; N = 4120)?
Answer: 10.9 Events/100 patient-yrs

Question: And the “Heart failure event (first), % of patients” value ([1]; N = 4120)?
Answer: 28.6%

Question: What about the “Heart failure event (first), no. of patients” value ([1]; N = 4120) of the same compound?
Answer: 1177 no.

Question: And the “Heart failure event, Events/100 patient-yrs” value ([1]; N = 4120)?
Answer: 18.7 Events/100 patient-yrs

Question: And the “Heart failure hospitalization (first), % of patients” value ([1]; N = 4120)?
Answer: 27.7%

Question: And the “Heart failure hospitalization (first), no. of patients” value ([1]; N = 4120)?
Answer: 1142 no.

Question: And the “Heart failure hospitalization, Events/100 patient-yrs” value ([1]; N = 4120)?
Answer: 18.0 Events/100 patient-yrs

Question: And the “Primary composite outcome, Events/100 patient-yrs” value ([1]; N = 4120)?
Answer: 24.2 Events/100 patient-yrs

Question: What about the “Primary composite outcome (first heart failure event or cardiovascular death), % of patients” value [1, 5] of the same compound?
Answer: 37.0%

Question: And the “Primary composite outcome (first heart failure event or cardiovascular death), no. of patients” value [1, 5]?
Answer: 1523 no.

Question: What about the “Change … difference vs placebo (95% CI)” value ([1]; Outpatients) of the same compound?
Answer: −0.46

Question: What about the “Change … difference vs placebo (95% CI)” value ([1]; Outpatients, listed as Omecamtiv Mecarbil) of the same compound?
Answer: −0.5 (−1.40, 0.48)

Question: And the “Change in KCCQ total symptom score at week 24, least squares mean (SE)” value ([1]; Outpatients)?
Answer: 5.8 (0.34)

Question: What about the “Cardiovascular death as first event, % of patients” value [1, 6] of the same compound?
Answer: 8.4%

Question: And the “Cardiovascular death as first event, no. of patients” value [1, 6]?
Answer: 346 no.

Question: And the “Risk reduction of primary composite outcome compared to placebo” value ([1]; overall population, median 22 months)?
Answer: 8%

Question: What about the “Cardiovascular death, % of patients” value ([1]; secondary outcome, N = 4120) of the same compound?
Answer: 19.6%

Question: And the “Cardiovascular death, no. of patients” value ([1]; secondary outcome, N = 4120)?
Answer: 808 no.

Question: And the “All-cause death, hazard ratio (95% CI)” value [1]?
Answer: 1.00

Question: What about the “Cardiovascular death, hazard ratio (95% CI)” value [1] of the same compound?
Answer: 1.01

Question: What about the “Heart failure event, hazard ratio (95% CI)” value [1] of the same compound?
Answer: 0.93

Question: What about the “Heart failure hospitalization, hazard ratio (95% CI)” value [1] of the same compound?
Answer: 0.95

Question: And the “All-cause death, hazard ratio (95% CI)” value ([1]; listed as Omecamtiv Mecarbil)?
Answer: 1.00 (0.92, 1.09)

Question: And the “Cardiovascular death, hazard ratio (95% CI)” value ([1]; listed as Omecamtiv Mecarbil)?
Answer: 1.01 (0.92, 1.11)

Question: And the “Heart failure event, hazard ratio (95% CI)” value ([1]; listed as Omecamtiv Mecarbil)?
Answer: 0.93 (0.86, 1.00)

Question: What about the “Heart failure hospitalization, hazard ratio (95% CI)” value ([1]; listed as Omecamtiv Mecarbil) of the same compound?
Answer: 0.95 (0.87, 1.03)

Question: And the “Primary composite outcome, hazard ratio (95% CI)” value [1]?
Answer: 0.92

Question: And the “Primary composite outcome, hazard ratio (95% CI)” value ([1]; listed as Omecamtiv Mecarbil)?
Answer: 0.92 (0.86, 0.99)

Question: And the “Primary outcome, hazard ratio for the treatment effect” value (“Primary outcome, hazard ratio” for short) ([2]; baseline SBP 101-110 mmHg (n=1734))?
Answer: 0.88

Question: And the “Primary outcome, hazard ratio” value ([2]; baseline SBP 111-120 mmHg (n=1824))?
Answer: 1.03

Question: And the “Primary outcome, hazard ratio” value ([2]; baseline SBP 121-130 mmHg (n=1627))?
Answer: 0.87

Question: And the “Primary outcome, hazard ratio” value ([2]; baseline SBP <100 mmHg (n=1473))?
Answer: 0.81

Question: What about the “Primary outcome, hazard ratio” value ([2]; baseline SBP >130 mmHg (n=1574)) of the same compound?
Answer: 1.07

Question: And the “Cumulative rate of HFEs at 36 months” value [3, 7]?
Answer: 81.8/ /100 pts

Question: And the “Frequency of HFE (all events)” value [3, 7]?
Answer: 31.2/ /100 pt yrs

Question: And the “IV Diuretics /Inotropes Nasodilators” value [3, 7]?
Answer: 35.7 /100 pt yrs

Question: What about the “Mechanical circulatory support during HF hospitalizations” value [3, 7] of the same compound?
Answer: 2.2 /100 pt yrs

Question: What about the “Mechanical fluid removal during HF hospitalizations” value [3, 7] of the same compound?
Answer: 0.8 /100 pt yrs

Question: And the “Time to first HFE, rate” value [3, 7]?
Answer: 18.9/ /100 pt yrs

Question: What about the “Total days in hospital” value [3, 7] of the same compound?
Answer: 524.1 /100 pt yrs

Question: What about the “Cumulative rate of HFEs at 36 months, Rate Ratio” value [3, 8] of the same compound?
Answer: Rate Ratio 0.799

Question: What about the “Cumulative rate of HFEs: treatment effect over time” value [3, 8] of the same compound?
Answer: increasing

Question: What about the “Frequency of HFE (all events), ARR” value [3, 8] of the same compound?
Answer: ARR 6.7/100 pt yrs

Question: What about the “Frequency of HFE (all events), HR” value [3, 8] of the same compound?
Answer: HR 0.85,

Question: And the “Frequency of HFE (all events), NNT” value [3, 8]?
Answer: NNT 14.9

Question: What about the “Time to first HFE, ARR” value [3, 8] of the same compound?
Answer: ARR 3.8/100 pt yrs

Question: And the “Time to first HFE, NNT” value [3, 8]?
Answer: NNT 26.5

Question: What about the “Clinical benefits and resource utilization” value ([3]; EF≤30%, without AFF, without digoxin at baseline, result in words) of the same compound?
Answer: significant clinical benefits and reductions in resource utilization

Question: What about the “Left ventricular systolic and diastolic volumes, natriuretic peptide concentrations and heart rate” value ([4]; oral therapy for 20 weeks, chronic HFrEF) of the same compound?
Answer: reduced left ventricular systolic and diastolic volumes, plasma natriuretic peptide concentrations and heart rate; also recorded: decreased left ventricular systolic and diastolic volumes

Question: What about the Cardiac performance ([4]; short-term intravenous and longer-term oral therapy) of the same compound?
Answer: improved cardiac performance
